These results are taken from US20240174690A1, “ANNULATED 2-AMINO-3-CYANO THIOPHENES AND DERIVATIVES FOR THE TREATMENT OF CANCER” (BOEHRINGER INGELHEIM INTERNATIONAL GMBH, priority 2021, published 2024).

One series relates to SK-CO-1 cells. As to the kind of experiment: SK-CO-1 CTG proliferation assay (120 h) (CRC, G12V). Type of series: cell-based. The note with it: Homo sapiens; SK-CO-1 cells (CRC, G12V), CTG 120 h. Put shortly: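 Compound exposure lasted 120 h in KRAS G12V SK-CO-1 cells seeded overnight at 500 cells/well in 10% FCS EMEM. CellTiter-Glo RLU normalised to DMSO wells gave percent viability, and a four-parameter model fit yielded IC50.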

A short description of series [1]: Caco-2 assay (permeability PappAB, PappBA, efflux ratio). Type of series: in vitro ADME. The following applies: human, Caco-2, 10 μM test compound, pH 7.4; for Papp A→B at 90 min, 10 μM: apical to basolateral; for efflux ratio at 90 min, 10 μM: efflux ratio PappBA/PappAB, read-out: Caco ER. Put shortly:
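Bidirectional permeability (apical-to-basolateral and reverse) through polarized Caco-2 monolayers, BSA 0.25% on each side, 37 °C. Donor and receiver sampled at 0-90 min after 25-30 min preincubation, analysed by HPLC/MS/MS. Apparent permeabilities derived from transfer rate normalised to area and t=0 donor concentration; ER taken as PappBA over PappAB.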
Background: Caco-2 monolayers are a common model of the intestinal barrier.

By IC50 is commonly meant the concentration needed to halve the response being measured. A high value points to weaker potency in that assay. As a reminder, the Papp A→B is how fast a substance crosses the layer from the apical side. Molecule `CC(C)NC(=O)Cc1ccn(-c2cc(O[C@@H](C)[C@@H]3CCCN3C)nc(-c3noc4c3CCC[C@@]43CCCc4sc(N)c(C#N)c43)n2)n1` [II-182] had an IC50 in the series on SK-CO-1 cells of 0.009 µM. In addition, in series [1], the Papp A→B at 90 min, 10 μM came to 71 nm/s and the efflux ratio at 90 min, 10 μM was 5.5.
In the series on SK-CO-1 cells, `C[C@H](Oc1cc(N2CCN(C)C3(CC3)C2)nc(-c2noc3c2CCC[C@@]32CCCc3sc(N)c(C#N)c32)n1)[C@@H]1CCCN1C` [II-171] returned an IC50 of 1.53 µM. Also, in series [1], the Papp A→B at 90 min, 10 μM was determined as 30 nm/s and the efflux ratio at 90 min, 10 μM came to 8.2.
For `C[C@H](Oc1cc(-n2cc(C(=O)N(C)C)nn2)nc(-c2noc3c2CCC[C@@]32CCCc3sc(N)c(C#N)c32)n1)[C@@H]1CCCN1C` [II-132], in that order: 0.018 µM, 68 nm/s and 4.9.
For `C[C@H](Oc1cc(N2C[C@@H]3[C@@H](N)[C@@H]3C2)nc(-c2noc3c2CCC[C@@]32CCCc3sc(N)c(C#N)c32)n1)[C@@H]1CCCN1C` [II-167], in that order: 1.34 µM, 3 nm/s and 82.1.
`C[C@H](Oc1cc(-n2nccc2-c2ccncc2)nc(-c2noc3c2CCC[C@@]32CCCc3sc(N)c(C#N)c32)n1)[C@@H]1CCCN1C` [II-131] registered a half-inhibitory concentration (IC50) in the series with SK-CO-1 cells of 0.09 µM. In addition, in series [1], the efflux ratio at 90 min, 10 μM came to 0.9.
In turn, `CO[C@H]1CCN(C)[C@@H]1[C@H](C)Oc1cc(-n2ccc(C(N)=O)n2)nc(-c2noc3c2CCC[C@@]32CCCc3sc(N)c(C#N)c32)n1` [II-201] had an IC50 with SK-CO-1 cells of 0.009 µM. Besides, in series [1], the Papp A→B at 90 min, 10 μM amounted to 180 nm/s and the efflux ratio at 90 min, 10 μM came out at 1.8.
In turn, `C[C@H](Oc1cc(-c2ccn(C)n2)nc(-c2noc3c2CCC[C@@]32CCCc3sc(N)c(C#N)c32)n1)[C@@H]1C[C@H](F)CN1C` [II-144] showed an IC50 in the series on SK-CO-1 cells of 0.13 µM. Besides, in series [1], the Papp A→B at 90 min, 10 μM amounted to 150 nm/s and the efflux ratio at 90 min, 10 μM was found to be 0.7.
For `CO[C@H]1CCN(C)[C@@H]1[C@H](C)Oc1cc(N2CCNC3(CC3)C2)nc(-c2noc3c2CCC[C@@]32CCCc3sc(N)c(C#N)c32)n1` [II-184], half-maximal inhibition with SK-CO-1 cells (IC50) required 0.249 µM. Further, in series [1], the efflux ratio at 90 min, 10 μM was found to be 2.3.
As for `C[C@H](Oc1cc(N2CCNC[C@@]23CCOC3)nc(-c2onc3c2CCC[C@@]32CCCc3sc(N)c(C#N)c32)n1)[C@@H]1CCCN1C` [I-13], the IC50 with SK-CO-1 cells amounted to 2.16 µM. Besides, in series [1], the Papp A→B at 90 min, 10 μM is 4 nm/s and the efflux ratio at 90 min, 10 μM was found to be 49.8.
Turning to `C[C@H](Oc1cc(-n2cc3c(n2)CNC3)nc(-c2noc3c2CCC[C@@]32CCCc3sc(N)c(C#N)c32)n1)[C@@H]1C[C@@H](F)CN1C` [II-154], the IC50 in the series with SK-CO-1 cells was 2.12 µM.
Molecule `C[C@H](Oc1cc(-n2ccc(-c3cn(C4CCOCC4)nn3)n2)nc(-c2noc3c2CCC[C@@]32CCCc3sc(N)c(C#N)c32)n1)[C@@H]1CCCN1C` [II-210] showed an IC50 with SK-CO-1 cells of 0.003 µM. In series [1], the efflux ratio at 90 min, 10 μM was 2.6.
`C[C@@H]1CN(c2cc(O[C@@H](C)[C@@H]3CCCN3C)nc(-c3noc4c3CCC[C@@]43CCCc4sc(N)c(C#N)c43)n2)CCN1` [II-161]: half-maximal inhibition in the series with SK-CO-1 cells (IC50) was put at 1.02 µM. In series [1], the Papp A→B at 90 min, 10 μM stood at 4 nm/s and the efflux ratio at 90 min, 10 μM was found to be 47.6.
The molecule `C[C@H](Oc1cc(-n2cc3c(n2)CN(C)C3)nc(-c2noc3c2CCC[C@@]32CCCc3sc(N)c(C#N)c32)n1)[C@@H]1CCCN1C` [II-174] displayed an IC50 with SK-CO-1 cells of 0.385 µM. In series [1], the efflux ratio at 90 min, 10 μM is 5.8.
As to `C[C@H](Oc1cc(-n2ccc(-c3cnccn3)n2)nc(-c2noc3c2CCC[C@@]32CCCc3sc(N)c(C#N)c32)n1)[C@@H]1CCCN1C` [II-130], in the series on SK-CO-1 cells, the IC50 amounted to 0.029 µM. Also, in series [1], the efflux ratio at 90 min, 10 μM is 1.4.
In the series on SK-CO-1 cells, `CO[C@@H]1C[C@@H]([C@H](C)Oc2cc(N3CCNC4(CC4)C3)nc(-c3noc4c3CCC[C@@]43CCCc4sc(N)c(C#N)c43)n2)N(C)C1` [II-187] registered an IC50 of 0.457 µM. In series [1], the apical-to-basolateral permeability (Papp A→B) at 90 min, 10 μM came out at 54 nm/s and the efflux ratio at 90 min, 10 μM came out at 4.6.
As for `C[C@H](Oc1cc(-n2cnc(C(=O)N(C)C)c2)nc(-c2noc3c2CCC[C@@]32CCCc3sc(N)c(C#N)c32)n1)[C@@H]1CCCN1C` [II-126], it took 0.137 µM to reach half-maximal inhibition in the series on SK-CO-1 cells (IC50). In series [1], the Papp A→B at 90 min, 10 μM came to 20 nm/s and the efflux ratio at 90 min, 10 μM was 11.
For the molecule `C[C@H](Oc1cc(-n2cc3c(n2)CCN(C)C3)nc(-c2noc3c2CCC[C@@]32CCCc3sc(N)c(C#N)c32)n1)[C@@H]1CCCN1C` [II-141], half-maximal inhibition in the series with SK-CO-1 cells (IC50) required 0.436 µM. The efflux ratio at 90 min, 10 μM in series [1] was determined as 7.9.
On to `[2H]C([2H])([2H])N1C[C@H](F)C[C@H]1[C@H](C)Oc1cc(N2CCN(C([2H])([2H])[2H])C3(CC3)C2)nc(-c2noc3c2CCC[C@@]32CCCc3sc(N)c(C#N)c32)n1` [II-207], for which the IC50 with SK-CO-1 cells stood at 1.26 µM.
For `C[C@H](Oc1cc([C@H]2CCNC2)nc(-c2noc3c2CCC[C@@]32CCCc3sc(N)c(C#N)c32)n1)[C@@H]1CCCN1C` [II-163], in the series with SK-CO-1 cells, the IC50 was 0.649 µM.
Molecule `CO[C@H]1CCN(C)[C@@H]1[C@H](C)Oc1cc(-n2ccc(C(=O)N[C@@H]3CCOC3)n2)nc(-c2noc3c2CCC[C@@]32CCCc3sc(N)c(C#N)c32)n1` [II-197] displayed an IC50 in the series on SK-CO-1 cells of 0.004 µM.
Turning to `C[C@H](Oc1nc(-c2noc3c2CCC[C@@]32CCCc3sc(N)c(C#N)c32)nc(N2CCN(C)C3(CC3)C2)c1Cl)[C@@H]1C[C@@H](F)CN1C` [II-176], 2.06 µM corresponded to half-maximal inhibition with SK-CO-1 cells (IC50).
